Series [1] concerns platelet-rich plasma (PRP), platelet aggregation induced by TXA2 agonist U-46619. As to the kind of experiment: Platelet aggregation inhibiting action 1 (U-46619-induced aggregation in PRP). The format is cell-based. The settings on record: human PRP, aggregation induced by U-46619 (final 1 to 4 μM), compound added 1 minute before. As to the method:
The blood collected from the human medial cubital vein was centrifuged at 800 rpm for 10 minutes, and the upper portion was collected as platelet-rich plasma (PRP). PRP was dispensed to small test tubes, and TXA2 agonist U-46619 was added thereto (the final concentration 1 to 4 μM) to induce platelet aggregation. The degree of platelet aggregation was measured as a change in turbidity by a platelet aggregation measuring device (Hematracer 1, Nikko Bioscience). Each compound was added 1 minute before the addition of U-46619, and a concentration at which aggregation was 50% inhibited was calculated as a IC50 value.

In series [2] the target is T1, TXA2 receptor (Homo sapiens, UniProt P21731).
T1 construct: The finally obtained sediment was used as a platelet membrane fraction; from tissue; host or cells: human platelets (membrane fraction from venous blood)
T1 sequence (P21731 1-343): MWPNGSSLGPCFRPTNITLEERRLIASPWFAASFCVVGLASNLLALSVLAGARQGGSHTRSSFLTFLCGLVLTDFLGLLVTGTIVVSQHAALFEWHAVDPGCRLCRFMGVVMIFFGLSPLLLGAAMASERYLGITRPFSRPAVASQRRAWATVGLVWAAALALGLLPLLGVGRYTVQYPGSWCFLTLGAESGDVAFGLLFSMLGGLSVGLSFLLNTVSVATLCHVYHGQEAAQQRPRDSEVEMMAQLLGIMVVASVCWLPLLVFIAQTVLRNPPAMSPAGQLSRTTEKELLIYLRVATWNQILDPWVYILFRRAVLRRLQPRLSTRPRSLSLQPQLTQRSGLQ
Put plainly: TXA2 receptor binding test ([3H]SQ29548, platelet membrane fraction). The conditions noted are these: [3H]SQ29548 10 nM, 25° C., 30 minutes, read-out: TXA2 receptor affinity Ki. The procedure:
The blood collected from the human antebrachial vein and 1/10 volume of ACD solution (85 mM trisodium citrate, 65 mM citric acid, 2% glucose) were mixed, and 8 ml of the mixture was dispensed to each of Spitz tubes. The platelet-rich plasma obtained by centrifugation at room temperature and 200×g for 10 minutes was further centrifuged at 1000×g for 15 minutes to obtain platelets. The thus-obtained platelets were centrifugally washed with a cleaning buffer (115 mM sodium chloride, 4.3 mM potassium dihydrogen phosphate, 5.5 mM glucose, 1 mM disodium EDTA, 10 μM […], pH 6.5), and 1 ml of a dissolution buffer (10 mM tris(hydroxymethyl)aminomethane, 5 mM magnesium chloride, 2 mM disodium EDTA, pH 7.4) was added to-the platelets, followed by three times of freezing in liquid nitrogen and melting at room temperature to crush the platelets. The crushed platelets were cleaned by three times of ultracentrifugation (40000×g, 20 minutes each) using […] ice-cold tris-hydrochloric acid buffer. The finally obtained sediment was used as a platelet membrane fraction.
As a TXA2 receptor ligand, tritium-labeled SQ29548 ([^3H]SQ29548) was used. As a solvent for receptor binding reaction, a 50 mM tris-hydrochloric acid buffer ([…] magnesium chloride, pH 7.4) was used. A saturation test was conducted by reaction of [^3H]SQ29548 (100 μl) at a final concentration of 3 to 100 nM and 0.1 mg protein/ml of platelet membrane fraction suspension (100 μl) at 25° C. for 30 minutes under shaking. […] Then, radioactivity was measured by a scintillation counter. Nonspecific binding to a substance other than the receptor was determined by reaction in the presence of SQ29548 at a final concentration of […]. In the competitive experiment, IC50 value and Hill coefficient of each of the test compounds were determined by pseudo-Hill plots, and the receptor dissociation constant (Ki value) was determined from the IC50 value and the receptor dissociation constant (Kd value) of [^3H]SQ29548, which was obtained by saturation experiment, according to the following equation: […]

Series [3] deals with T2, PGI2 receptor (Homo sapiens, UniProt P43119).
T2 construct: 0.1 mg protein/ml of platelet membrane fraction suspension (100 μl) at 4° C. for 60 minutes; from tissue; host or cells: platelets (membrane fraction)
T2 sequence (P43119 whole entry): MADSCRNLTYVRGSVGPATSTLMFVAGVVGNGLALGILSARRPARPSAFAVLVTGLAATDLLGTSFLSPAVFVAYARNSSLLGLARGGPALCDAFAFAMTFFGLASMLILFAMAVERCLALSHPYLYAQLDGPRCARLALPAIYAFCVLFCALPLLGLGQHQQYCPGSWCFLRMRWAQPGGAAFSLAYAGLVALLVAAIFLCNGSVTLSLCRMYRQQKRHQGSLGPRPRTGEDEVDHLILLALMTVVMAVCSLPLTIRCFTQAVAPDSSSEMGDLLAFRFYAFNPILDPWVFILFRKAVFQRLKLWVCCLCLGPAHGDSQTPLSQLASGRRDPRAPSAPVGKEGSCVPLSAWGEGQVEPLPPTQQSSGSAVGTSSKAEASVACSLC
As to the kind of experiment: PGI2 receptor binding experiment (tritium-labeled compound A, platelet membrane fraction). The conditions noted are these: tritium-labeled compound A 10 nM, 4° C., 60 minutes, read-out: PGI2 receptor affinity Ki. As to the method:
As a PGI2 receptor ligand, tritium-labeled (1R, 2R, 3aS, 8bS)-2,3,3a,8b-tetrahydro-2-hydroxy-1-[(E)-(3S, 4S)-3-hydroxy-4-methyl-1-octene-6-ynyl]-1H-cyclopenta [b]benzofuran-4-butanoic acid (compound A) was used. A saturation test was conducted by reaction of compound A (100 μl) at a final concentration of 3 to 100 nM and 0.1 mg protein/ml of platelet membrane fraction suspension (100 μl) at 4° C. for 60 minutes under shaking. Competitive experiment was carried out by reaction of a mixed solution (100 μl) of a test compound dissolved in an appropriate solvent and diluted and compound A at a final concentration of 10 nM, and 0.1 mg protein/ml of platelet membrane fraction suspension (100 μl) at 4° C. for 60 minutes under shaking. After the completion of reaction, the membrane fraction was recovered on a glass filter by a cell harvester, and washed with an ice-cold buffer. Then, radioactivity was measured by a scintillation counter. Nonspecific binding to a substance other than the receptor was determined by reaction in the presence of beraprost sodium at a final concentration of […]. In the competitive experiment, IC50 value and Hill coefficient of each of test compounds were determined by pseudo-Hill plots, and the receptor dissociation constant (Ki value) was determined from the IC50 value and the receptor dissociation constant (Kd value) of compound A, which was obtained by saturation experiment, according to the following equation:
Ki value=IC50 value/[1+(radioactive ligand concentration/Kd value)]

For series [4], the system named is platelet-rich plasma (PRP), platelet aggregation induced by ADP. As to the kind of experiment: Platelet aggregation inhibiting action 2 (ADP-induced aggregation in PRP). The series is classed as cell-based. The settings on record: human PRP, aggregation induced by ADP (final 1 to 10 μM), compound added 1 minute before. The procedure: The blood collected from the human medial cubital vein was centrifuged 800 rpm for 10 minutes, and the upper portion was collected as platelet-rich plasma (PRP). PRP was dispensed to small test tubes, and ADP was added thereto (the final concentration 1 to 10 μM) to induce platelet aggregation. The degree of platelet aggregation was measured as a change in turbidity by a platelet aggregation measuring device (Hematracer 1, Nikko Bioscience). Each compound was added 1 minute before the addition of ADP, and a concentration at which aggregation was 50% inhibited was calculated as IC50 value.

By IC50 is commonly meant the concentration that inhibits the measured activity by half. Low values mean higher potency, high ones lower potency. As a reminder, the Ki is a dissociation constant, usually derived from enzyme kinetics or from competition with a known ligand. In general, melting point refers to the temperature, or range, at which the solid turns liquid. In the case of `O=C(O)COc1cccc2c1OCC2CCSC(c1ccccc1)c1ccccc1` (centres unmarked) [Example 36, (3-(2-(diphenylmethylthio)ethyl)-2,3-dihydrobenzofuran-7-yloxy)acetic acid], the melting point was in the range of 88 to 89 °C. In series [1], this compound displayed an IC50 of 550 nM. In addition, the Ki in series [2] stood at 70 nM. Further, the Ki in series [3] came out at 230 nM. This compound displayed an IC50 in series [4] of 950 nM.
